Entries after “also recorded” stand apart in the source; their conditions may differ. Read-outs that look alike come from different tables or passages of the source.
Tests used:
dogs [1] = settings: cited from earlier work
healthy dogs [2] = assay: Rectal temperature change from baseline; type: in vivo, dogs (Beagles); settings: SC 0.4 mg/kg, n=6, P<0.05
healthy dogs [3] = assay: Adverse effects observed after administration; settings: SC 0.4 mg/kg
dogs [4] = settings: cited from earlier work; remark: listed apart in the source
[5] = Pharmacokinetics of butorphanol in plasma; settings: for AUC(0-inf): AUCinf
[6] = 0.4 mg/kg IV, ref Wegner et al., 2008
[7] = both, Beagle, dog, in vivo, iv, 0.4 mg/kg, IV bolus 0.4 mg/kg IV, geometric mean, n=6
[8] = both, Beagle, dog, in vivo, sc, 0.4 mg/kg
[9] = both, Beagle, dog, in vivo, sc, 0.4 mg/kg, SC 0.4 mg/kg, geometric mean, n=6

In the case of `Oc1ccc2c(c1)[C@@]13CCCC[C@@]1(O)[C@@H](C2)N(CC1CCC1)CC3` [butorphanol], the “thermal antinociception compared to hydromorphone at 0.1 mg/kg IV” value (dogs [1]; [6]) is listed as “equianalgesic peak effects and duration”, the “time of peak effect, thermal antinociception” value (dogs [1]; [6]) is listed as 1 h and the “time of peak antinociceptive effect after IV administration” value (dogs [1]; IV, ref Wegner et al 2008) is listed as 60 min. For the same compound, the “statistically significant decrease in rectal temperature compared to baseline” value (healthy dogs [2]) was “did not occur”, the hypersalivation (healthy dogs [3]) was 2/6 and the “antinociception, colonic distension model” value (dogs [4]; 0.4 mg/kg IV, 30 minutes (latest time point assessed), ref Houghton, et. al., 1991) was “significant effects; also recorded: significant antinociception”. For the same compound, the “antinociception, colonic distension model” value (dogs [4]; 0.8 mg/kg SC, 45 minutes, ref Sawyer, et. al. 1991) was “did produce a significant effect; also recorded: significant antinociception”, the “response, colonic distension nociceptive model” value (dogs [4]; doses up to 0.4 mg/kg SC, 45 minutes, ref Sawyer et al., 1991) was “failed to produce a significant response” and the “Css (steady state plasma concentration)” value ([5]; IV CRI: 0.2 mg/kg IV loading dose then 0.2 mg/kg/hr for 8 hours, geometric mean, n=5) was 43.1 ng/mL. It also gave an AUC extrapolated ([5]; IV bolus 0.4 mg/kg IV, geometric mean, n=6) of 1.0%, an AUC extrapolated ([5]; SC 0.4 mg/kg, geometric mean, n=6) of 2.5% and a half-life ([5]; both, Beagle, dog, in vivo, half-life, dogs, overall statement of abstract) of about 1.5 h. It also gave a concentration at 5 min ([5]; both, Beagle, dog, in vivo, iv, 0.4 mg/kg) of 144 ng/mL, an AUC(0-inf) [5, 7] of 143 ng·h/mL and a C0 ([5]; both, Beagle, dog, in vivo, iv, 0.4 mg/kg, C0, IV bolus 0.4 mg/kg IV, geometric mean, n=6) of 183 ng/mL. For the same compound, the clearance ([5]; both, Beagle, dog, in vivo, iv, 0.4 mg/kg, Cl, IV bolus 0.4 mg/kg IV, geometric mean, n=6) was 46.5 mL/min/kg, the MRT [5, 7] was 1.26 h and the half-life ([5]; both, Beagle, dog, in vivo, iv, 0.4 mg/kg, T ½ λz, IV bolus 0.4 mg/kg IV, geometric mean, n=6) was 1.47 h. For the same compound, the Vd ([5]; both, Beagle, dog, in vivo, iv, 0.4 mg/kg, Vss, IV bolus 0.4 mg/kg IV, geometric mean, n=6) was 3.51 L/kg, the Vd ([5]; both, Beagle, dog, in vivo, iv, 0.4 mg/kg, Vz, IV bolus 0.4 mg/kg IV, geometric mean, n=6) was 5.91 L/kg and the k el ([5]; both, Beagle, dog, in vivo, iv, 0.4 mg/kg, λz, IV bolus 0.4 mg/kg IV, geometric mean, n=6) was 0.000131 s⁻¹. For the same compound, the half-life ([5]; both, Beagle, dog, in vivo, iv, T ½ λz, IV CRI: 0.2 mg/kg IV loading dose then 0.2 mg/kg/hr for 8 hours, geometric mean, n=5) was 1.42 h, the k el ([5]; both, Beagle, dog, in vivo, iv, λz, IV CRI: 0.2 mg/kg IV loading dose then 0.2 mg/kg/hr for 8 hours, geometric mean, n=5) was 0.000136 s⁻¹ and the Cmax [5, 8] was 74.2 ng/mL. The TMAX [5, 8] was 0.21 h, the AUC(0-inf) [5, 9] was 123 ng·h/mL and the MRT [5, 9] was 2.09 h. For the same compound, the half-life ([5]; both, Beagle, dog, in vivo, sc, 0.4 mg/kg, T ½ λz, SC 0.4 mg/kg, geometric mean, n=6) was 1.83 h and the k el ([5]; both, Beagle, dog, in vivo, sc, 0.4 mg/kg, Λz, SC 0.4 mg/kg, geometric mean, n=6) was 0.000105 s⁻¹.

From PMC10949855 (Journal of veterinary pharmacology and therapeutics, 2022)
